Laboratory results taken from EP4745137A1 (Gluetacs Therapeutics (Shanghai) Co., Ltd., priority 2023, dated 2025).

How the values were obtained:
IKZF3 = molecular target: T1, IKZF3 (Homo sapiens, UniProt Q96SW2+Q9UKT9); experiment: Western-blot assay of substrate protein degradation in hPBMCs, IKZF3; assay type: cell-based; conditions: 24 hours of compound treatment
T1 construct: endogenous in cells; host or cells: hPBMCs (Milecell Biotechnologies)

IKZF1 = molecular target: T2, IKZF1 (Homo sapiens, UniProt Q13422+Q96SW2); experiment: Western-blot assay of substrate protein degradation in hPBMCs, IKZF1; assay type: cell-based; conditions: 24 hours of compound treatment
T2 construct: endogenous in cells; host or cells: hPBMCs (Milecell Biotechnologies)

CK1α = molecular target: T3, CK1α (Homo sapiens, UniProt P48729+Q96SW2); experiment: Western-blot assay of substrate protein degradation in hPBMCs, CK1α; assay type: cell-based; conditions: 24 hours of compound treatment
T3 construct: endogenous in cells; host or cells: hPBMCs (Milecell Biotechnologies)

[1] = system: Human acute T lymphocytic leukemia cells (Molt-4); experiment: Tumor cell proliferation inhibition (CellTiter-Meiluncell Luminescent Cell Viability Assay), Molt-4; conditions: MOLT-4, 96 h, read-out: inhibitory activity (IC50, nM) against tumor cells proliferation, Molt 4
WEE1 = molecular target: T4, WEE1 (Homo sapiens, UniProt P30291+Q96SW2); experiment: Western-blot assay of substrate protein degradation in hPBMCs, WEE1; assay type: cell-based; conditions: 24 hours of compound treatment
T4 construct: endogenous in cells; host or cells: hPBMCs (Milecell Biotechnologies)

IKZF2 = molecular target: T5, IKZF2 (Homo sapiens, UniProt Q96SW2+Q9UKS7); experiment: Western-blot assay of substrate protein degradation in hPBMCs, IKZF2; assay type: cell-based; conditions: 24 hours of compound treatment
T5 construct: endogenous in cells; host or cells: hPBMCs (Milecell Biotechnologies)

GSPT1 = molecular target: T6, GSPT1 (Homo sapiens, UniProt P15170+Q96SW2); experiment: Western-blot assay of substrate protein degradation in hPBMCs, GSPT1; assay type: cell-based; conditions: 24 hours of compound treatment
T6 construct: endogenous in cells; host or cells: hPBMCs (Milecell Biotechnologies)

[2] = molecular target: T7, human Cereblon WT GST-tagged protein (Homo sapiens, UniProt Q96SW2); experiment: CRBN-binding affinity by HTRF (CEREBLON BINDING kit); conditions: HTRF inhibitory activity, CEREBLON BINDING kit; read-out: HTRF IC50
T7 construct: purchased CISBIO 64BDCRBNPEH

[3] = compounds tested at 50 nM and 500 nM (concentration of the table not stated)
[4] = 50 nM and 500 nM tested (concentration behind the class not stated)

T4 sequence (P30291 whole entry): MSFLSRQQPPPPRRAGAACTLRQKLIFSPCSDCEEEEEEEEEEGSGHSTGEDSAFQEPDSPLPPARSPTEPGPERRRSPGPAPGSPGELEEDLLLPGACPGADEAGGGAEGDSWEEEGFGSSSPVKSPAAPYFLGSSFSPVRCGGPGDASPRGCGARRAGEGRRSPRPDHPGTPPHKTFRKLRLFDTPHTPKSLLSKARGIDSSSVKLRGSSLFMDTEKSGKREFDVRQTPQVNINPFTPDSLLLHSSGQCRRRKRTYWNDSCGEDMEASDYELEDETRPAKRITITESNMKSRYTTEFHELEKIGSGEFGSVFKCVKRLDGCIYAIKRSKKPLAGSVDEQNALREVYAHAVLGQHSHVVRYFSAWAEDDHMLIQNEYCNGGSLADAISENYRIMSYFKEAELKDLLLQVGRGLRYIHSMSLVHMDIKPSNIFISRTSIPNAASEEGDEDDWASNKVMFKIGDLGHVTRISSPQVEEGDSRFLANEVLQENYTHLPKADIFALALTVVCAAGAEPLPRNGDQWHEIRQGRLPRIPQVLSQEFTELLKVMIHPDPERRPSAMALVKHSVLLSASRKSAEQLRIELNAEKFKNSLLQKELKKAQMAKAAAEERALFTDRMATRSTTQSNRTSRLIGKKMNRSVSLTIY
T4 sequence (Q96SW2 whole entry): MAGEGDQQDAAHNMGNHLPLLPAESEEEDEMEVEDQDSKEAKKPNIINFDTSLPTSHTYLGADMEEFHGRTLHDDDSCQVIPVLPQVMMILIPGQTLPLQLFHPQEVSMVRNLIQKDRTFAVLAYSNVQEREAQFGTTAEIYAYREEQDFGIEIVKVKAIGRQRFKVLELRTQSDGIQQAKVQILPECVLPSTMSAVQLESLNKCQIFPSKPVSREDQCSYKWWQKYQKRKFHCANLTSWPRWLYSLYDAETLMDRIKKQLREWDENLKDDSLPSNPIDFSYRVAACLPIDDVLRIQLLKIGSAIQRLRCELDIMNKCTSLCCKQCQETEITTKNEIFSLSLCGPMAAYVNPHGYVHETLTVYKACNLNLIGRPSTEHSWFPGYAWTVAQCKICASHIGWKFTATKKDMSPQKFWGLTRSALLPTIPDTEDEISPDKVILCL
T4 sequence (Q16531 whole entry partner): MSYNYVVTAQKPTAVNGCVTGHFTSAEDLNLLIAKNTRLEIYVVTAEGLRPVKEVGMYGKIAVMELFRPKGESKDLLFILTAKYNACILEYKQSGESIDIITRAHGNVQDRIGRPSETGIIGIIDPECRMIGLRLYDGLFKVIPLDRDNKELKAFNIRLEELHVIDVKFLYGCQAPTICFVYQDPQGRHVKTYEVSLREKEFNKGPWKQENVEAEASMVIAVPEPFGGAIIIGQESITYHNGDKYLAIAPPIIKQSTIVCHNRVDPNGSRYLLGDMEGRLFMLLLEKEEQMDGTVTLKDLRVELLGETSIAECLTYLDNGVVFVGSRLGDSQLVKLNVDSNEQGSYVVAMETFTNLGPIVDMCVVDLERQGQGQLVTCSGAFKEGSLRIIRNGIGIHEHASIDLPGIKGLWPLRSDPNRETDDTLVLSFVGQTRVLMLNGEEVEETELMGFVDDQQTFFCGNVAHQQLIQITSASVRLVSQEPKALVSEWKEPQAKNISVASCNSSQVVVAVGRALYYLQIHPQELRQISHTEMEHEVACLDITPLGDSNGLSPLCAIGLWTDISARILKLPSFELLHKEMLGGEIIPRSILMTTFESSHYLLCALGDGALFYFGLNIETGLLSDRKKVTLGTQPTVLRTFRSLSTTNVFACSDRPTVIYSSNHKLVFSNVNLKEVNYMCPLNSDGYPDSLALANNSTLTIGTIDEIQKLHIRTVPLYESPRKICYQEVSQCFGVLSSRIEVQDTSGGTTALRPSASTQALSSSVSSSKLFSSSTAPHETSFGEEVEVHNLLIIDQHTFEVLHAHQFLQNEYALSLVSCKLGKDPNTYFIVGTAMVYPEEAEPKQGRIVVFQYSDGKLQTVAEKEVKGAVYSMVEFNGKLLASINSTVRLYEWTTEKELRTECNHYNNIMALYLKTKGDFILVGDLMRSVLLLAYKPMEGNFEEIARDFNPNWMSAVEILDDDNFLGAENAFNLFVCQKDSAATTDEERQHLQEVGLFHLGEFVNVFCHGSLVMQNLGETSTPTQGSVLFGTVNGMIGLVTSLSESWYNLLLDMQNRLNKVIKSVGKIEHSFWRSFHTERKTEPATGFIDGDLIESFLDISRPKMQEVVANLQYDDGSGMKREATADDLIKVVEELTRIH
T5 sequence (Q9UKS7 whole entry): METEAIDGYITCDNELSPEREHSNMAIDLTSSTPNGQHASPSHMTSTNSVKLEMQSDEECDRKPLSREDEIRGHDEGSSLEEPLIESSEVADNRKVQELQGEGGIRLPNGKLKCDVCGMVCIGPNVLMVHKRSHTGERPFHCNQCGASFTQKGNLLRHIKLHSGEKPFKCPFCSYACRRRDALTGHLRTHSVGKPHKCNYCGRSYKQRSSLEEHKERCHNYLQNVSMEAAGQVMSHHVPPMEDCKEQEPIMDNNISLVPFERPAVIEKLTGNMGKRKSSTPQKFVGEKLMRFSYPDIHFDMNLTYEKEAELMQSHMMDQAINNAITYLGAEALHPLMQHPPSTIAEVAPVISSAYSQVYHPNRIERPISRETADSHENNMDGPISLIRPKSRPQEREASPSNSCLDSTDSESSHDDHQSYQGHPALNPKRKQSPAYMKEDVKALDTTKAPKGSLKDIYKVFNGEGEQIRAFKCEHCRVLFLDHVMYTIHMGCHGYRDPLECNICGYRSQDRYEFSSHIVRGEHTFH
T5 sequence (Q96SW2 whole entry): as the sequence (Q96SW2 whole entry) above
T5 sequence (Q16531 whole entry partner): as the sequence (Q16531 whole entry partner) above
T2 sequence (Q13422 whole entry): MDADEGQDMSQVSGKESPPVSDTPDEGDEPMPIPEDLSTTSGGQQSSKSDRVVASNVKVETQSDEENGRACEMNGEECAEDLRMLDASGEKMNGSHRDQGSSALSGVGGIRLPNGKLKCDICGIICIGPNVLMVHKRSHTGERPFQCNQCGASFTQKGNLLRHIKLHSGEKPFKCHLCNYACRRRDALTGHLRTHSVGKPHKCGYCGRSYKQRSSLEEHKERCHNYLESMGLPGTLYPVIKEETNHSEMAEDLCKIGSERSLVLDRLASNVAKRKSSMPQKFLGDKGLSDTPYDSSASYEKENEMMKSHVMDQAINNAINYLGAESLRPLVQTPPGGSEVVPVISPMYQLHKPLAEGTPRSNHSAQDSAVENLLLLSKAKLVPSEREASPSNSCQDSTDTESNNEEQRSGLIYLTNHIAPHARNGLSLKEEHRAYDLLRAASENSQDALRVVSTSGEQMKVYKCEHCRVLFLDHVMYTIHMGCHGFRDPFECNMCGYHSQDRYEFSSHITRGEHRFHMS
T2 sequence (Q96SW2 whole entry): as the sequence (Q96SW2 whole entry) above
T2 sequence (Q16531 whole entry partner): as the sequence (Q16531 whole entry partner) above
T1 sequence (Q9UKT9 whole entry): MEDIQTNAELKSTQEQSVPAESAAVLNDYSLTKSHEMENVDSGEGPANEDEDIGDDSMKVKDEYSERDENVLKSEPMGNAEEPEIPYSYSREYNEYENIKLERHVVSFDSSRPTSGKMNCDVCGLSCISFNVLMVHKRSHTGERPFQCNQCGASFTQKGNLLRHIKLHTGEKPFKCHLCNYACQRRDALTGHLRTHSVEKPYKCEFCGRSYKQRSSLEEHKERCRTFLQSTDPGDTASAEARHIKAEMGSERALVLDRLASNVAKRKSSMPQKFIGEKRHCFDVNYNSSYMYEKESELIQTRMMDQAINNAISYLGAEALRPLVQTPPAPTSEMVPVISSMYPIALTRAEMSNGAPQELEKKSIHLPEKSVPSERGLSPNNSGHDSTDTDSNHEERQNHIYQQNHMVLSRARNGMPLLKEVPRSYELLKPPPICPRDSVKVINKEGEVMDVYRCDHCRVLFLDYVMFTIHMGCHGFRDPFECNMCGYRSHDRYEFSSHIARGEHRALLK
T1 sequence (Q96SW2 whole entry): as the sequence (Q96SW2 whole entry) above
T1 sequence (Q16531 whole entry partner): as the sequence (Q16531 whole entry partner) above
T6 sequence (P15170 whole entry): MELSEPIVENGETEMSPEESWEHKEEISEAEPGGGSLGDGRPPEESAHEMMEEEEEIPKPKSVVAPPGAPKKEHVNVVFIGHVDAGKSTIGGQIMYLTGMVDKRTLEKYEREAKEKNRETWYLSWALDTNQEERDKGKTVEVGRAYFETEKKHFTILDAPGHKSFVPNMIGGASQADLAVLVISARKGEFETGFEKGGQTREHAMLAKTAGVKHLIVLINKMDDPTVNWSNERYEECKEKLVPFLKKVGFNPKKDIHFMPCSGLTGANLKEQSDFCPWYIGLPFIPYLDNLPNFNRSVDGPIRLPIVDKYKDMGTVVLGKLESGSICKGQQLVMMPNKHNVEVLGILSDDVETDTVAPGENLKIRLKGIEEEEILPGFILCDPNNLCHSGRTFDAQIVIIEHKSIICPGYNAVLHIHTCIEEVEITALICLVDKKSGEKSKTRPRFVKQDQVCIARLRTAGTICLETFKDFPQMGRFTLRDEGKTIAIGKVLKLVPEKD
T6 sequence (Q96SW2 whole entry): as the sequence (Q96SW2 whole entry) above
T6 sequence (Q16531 whole entry partner): as the sequence (Q16531 whole entry partner) above
T7 sequence (Q96SW2 whole entry): as the sequence (Q96SW2 whole entry) above

O=C1CCC(N2Cc3cc(CN4CC(c5ccnc6cc(F)ccc56)C4)ccc3C2=O)C(=O)N1 (stereo not drawn) [GT-04651, 3-(5-((3-(7-fluoroquinolin-4-yl)azetidin-1-yl)methyl)-1-oxoisoindolin-2-yl)piperidine-2,6-dione]
IKZF3 substrate protein remaining % (IKZF3; [3]): A (0% ≤ substrate protein remaining % ≤ 80%) | IKZF 1 substrate protein remaining % (IKZF1; [3]): A (0% ≤ substrate protein remaining % ≤ 80%) | CK1a substrate protein remaining % (CK1α; [3]): A (0% ≤ substrate protein remaining % ≤ 80%) | IC50 [1]: 500 to 1000 nM | Weel substrate protein remaining % (WEE1; [3]): B (80%< substrate protein remaining %≤ 100%) | IKZF2 substrate protein remaining % (IKZF2; [3]): A (0% ≤ substrate protein remaining % ≤ 80%) | GSPT1 substrate protein remaining % (GSPT1; [3]): A (0% ≤ substrate protein remaining % ≤ 80%) | IC50 [2]: < 500 nM

Cc1ccsc1N1CCN(Cc2ccc3c(c2)CN(C2CCC(=O)NC2=O)C3=O)CC1 (stereo not drawn) [GT-04582, 3-(5-((4-(3-methylthiophen-2-yl)piperazin-1-yl)methyl)-1-oxoisoindolin-2-yl)piperidine-2,6-dione]
IKZF3 substrate protein remaining % (IKZF3; [3]): A (0% ≤ substrate protein remaining % ≤ 80%) | IKZF 1 substrate protein remaining % (IKZF1; [3]): A (0% ≤ substrate protein remaining % ≤ 80%) | CK1a substrate protein remaining % (CK1α; [3]): B (80%< substrate protein remaining %≤ 100%) | IC50 [1]: 50 to 100 nM | Weel substrate protein remaining % (WEE1; [3]): A (0% ≤ substrate protein remaining % ≤ 80%) | IKZF2 substrate protein remaining % (IKZF2; [3]): A (0% ≤ substrate protein remaining % ≤ 80%) | GSPT1 substrate protein remaining % (GSPT1; [3]): A (0% ≤ substrate protein remaining % ≤ 80%) | IC50 [2]: < 500 nM

O=C1CCC(N2Cc3cc(CN4CC(n5cnc6cc(F)ccc65)C4)ccc3C2=O)C(=O)N1 (stereo not drawn) [GT-04716, 3-(5-((3-(5-fluoro-1H-benzo[d]imidazol-1-yl)azetidin-1-yl)methyl)-1-oxoisoindolin-2-yl)piperidine-2,6-dione]
IKZF3 substrate protein remaining % (IKZF3; [3]): B (80%< substrate protein remaining %≤ 100%) | IKZF 1 substrate protein remaining % (IKZF1; [3]): B (80%< substrate protein remaining %≤ 100%) | CK1a substrate protein remaining % (CK1α; [3]): B (80%< substrate protein remaining %≤ 100%) | IC50 [1]: 100 to 500 nM | Weel substrate protein remaining % (WEE1; [3]): B (80%< substrate protein remaining %≤ 100%) | IKZF2 substrate protein remaining % (IKZF2; [3]): B (80%< substrate protein remaining %≤ 100%) | GSPT1 substrate protein remaining % (GSPT1; [3]): A (0% ≤ substrate protein remaining % ≤ 80%) | IC50 [2]: 500 to 1000 nM

Cc1ccsc1C1=CCN(Cc2cccc3c2C(=O)N(C2CCC(=O)NC2=O)C3=O)CC1 (stereo not drawn) [GT-04731, 2-(2,6-dioxopiperidin-3-yl)-4-((4-(3-methylthiophen-2-yl)-3,6-dihydropyridin-1(2H)-yl)methyl)isoindoline-1,3-dione]
IKZF3 substrate protein remaining % (IKZF3; [3]): B (80%< substrate protein remaining %≤ 100%) | IKZF 1 substrate protein remaining % (IKZF1; [3]): B (80%< substrate protein remaining %≤ 100%) | CK1a substrate protein remaining % (CK1α; [3]): B (80%< substrate protein remaining %≤ 100%) | IC50 [1]: 500 to 1000 nM | Weel substrate protein remaining % (WEE1; [3]): B (80%< substrate protein remaining %≤ 100%) | IKZF2 substrate protein remaining % (IKZF2; [3]): B (80%< substrate protein remaining %≤ 100%) | GSPT1 substrate protein remaining % (GSPT1; [3]): A (0% ≤ substrate protein remaining % ≤ 80%)

O=C1CCC(N2Cc3cc(CN4CCC(n5c(=O)[nH]c6cc(F)ccc65)CC4)ccc3C2=O)C(=O)N1 (stereo not drawn) [GT-04714, 3-(5-((4-(5-fluoro-2-oxo-2,3-dihydro-1H-benzo[d]imidazol-1-yl)piperidin-1-yl)methyl)-1-oxoisoindolin-2-yl)piperidine-2,6-dione]
IKZF3 substrate protein remaining % (IKZF3; [3]): A (0% ≤ substrate protein remaining % ≤ 80%) | IKZF 1 substrate protein remaining % (IKZF1; [3]): A (0% ≤ substrate protein remaining % ≤ 80%) | CK1a substrate protein remaining % (CK1α; [3]): A (0% ≤ substrate protein remaining % ≤ 80%) | Weel substrate protein remaining % (WEE1; [3]): A (0% ≤ substrate protein remaining % ≤ 80%) | IKZF2 substrate protein remaining % (IKZF2; [3]): A (0% ≤ substrate protein remaining % ≤ 80%) | GSPT1 substrate protein remaining % (GSPT1; [3]): A (0% ≤ substrate protein remaining % ≤ 80%) | IC50 [2]: 500 to 1000 nM

O=C1CCC(N2Cc3cc(CN4CCN(c5ncnc6sc(Br)cc56)CC4)ccc3C2=O)C(=O)N1 (stereo not drawn) [GT-04861, 3-(5-((4-(6-bromothieno[2,3-d]pyrimidin-4-yl)piperazin-1-yl)methyl)-1-oxoisoindolin-2-yl)piperidine-2,6-dione]
IKZF3 substrate protein remaining % (IKZF3; [3]): A (0% ≤ substrate protein remaining % ≤ 80%) | IKZF 1 substrate protein remaining % (IKZF1; [3]): A (0% ≤ substrate protein remaining % ≤ 80%) | CK1a substrate protein remaining % (CK1α; [3]): A (0% ≤ substrate protein remaining % ≤ 80%) | Weel substrate protein remaining % (WEE1; [3]): A (0% ≤ substrate protein remaining % ≤ 80%) | IKZF2 substrate protein remaining % (IKZF2; [3]): A (0% ≤ substrate protein remaining % ≤ 80%) | GSPT1 substrate protein remaining % (GSPT1; [3]): A (0% ≤ substrate protein remaining % ≤ 80%) | IC50 [2]: < 500 nM

CC1(C)[C@@H]2CC[C@]1(CS(=O)(=O)NCc1ccc3c(c1)CN(C1CCC(=O)NC1=O)C3=O)C(=O)C2 (stereo partly drawn) [GT-06927]
IKZF3 substrate protein remaining % (IKZF3; [4]): B (80%< substrate protein remaining %≤ 100%) | IKZF 1 substrate protein remaining % (IKZF1; [4]): B (80%< substrate protein remaining %≤ 100%) | CK1a substrate protein remaining % (CK1α; [4]): A (0% ≤ substrate protein remaining % ≤ 80%) | Weel substrate protein remaining % (WEE1; [4]): B (80%< substrate protein remaining %≤ 100%) | IKZF2 substrate protein remaining % (IKZF2; [4]): B (80%< substrate protein remaining %≤ 100%) | GSPT1 substrate protein remaining % (GSPT1; [4]): B (80%< substrate protein remaining %≤ 100%) | IC50 [2]: 500 to 1000 nM

O=C1CCC(N2C(=O)c3ccc(CN4CCC(c5ncnc6sc7c(c56)CCCC7)CC4)cc3C2=O)C(=O)N1 (stereo not drawn) [GT-06649, 2-(2,6-dioxopiperidin-3-yl)-5-((4-(5,6,7,8-tetrahydrobenzo[4,5]thieno[2,3-d]pyrimidin-4-yl)piperidin-1-yl)methyl)isoindoline-1,3-dione]
IKZF3 substrate protein remaining % (IKZF3; [4]): A (0% ≤ substrate protein remaining % ≤ 80%) | IKZF 1 substrate protein remaining % (IKZF1; [4]): B (80%< substrate protein remaining %≤ 100%) | CK1a substrate protein remaining % (CK1α; [4]): A (0% ≤ substrate protein remaining % ≤ 80%) | Weel substrate protein remaining % (WEE1; [4]): A (0% ≤ substrate protein remaining % ≤ 80%) | IKZF2 substrate protein remaining % (IKZF2; [4]): A (0% ≤ substrate protein remaining % ≤ 80%) | GSPT1 substrate protein remaining % (GSPT1; [4]): A (0% ≤ substrate protein remaining % ≤ 80%) | IC50 [2]: 1500 to 1900 nM

O=C1CCC(N2Cc3cc(CN4CCN(c5ncccn5)CC4)ccc3C2=O)C(=O)N1 (stereo not drawn) [GT-04484, 3-(1-oxo-5-((4-(pyrimidin-2-yl)piperazin-1-yl)methyl)isoindolin-2-yl)piperidine-2,6-dione]
IKZF3 substrate protein remaining % (IKZF3; [3]): B (80%< substrate protein remaining %≤ 100%) | IKZF 1 substrate protein remaining % (IKZF1; [3]): B (80%< substrate protein remaining %≤ 100%) | CK1a substrate protein remaining % (CK1α; [3]): A (0% ≤ substrate protein remaining % ≤ 80%) | Weel substrate protein remaining % (WEE1; [3]): A (0% ≤ substrate protein remaining % ≤ 80%) | IKZF2 substrate protein remaining % (IKZF2; [3]): A (0% ≤ substrate protein remaining % ≤ 80%) | GSPT1 substrate protein remaining % (GSPT1; [3]): A (0% ≤ substrate protein remaining % ≤ 80%) | IC50 [2]: 500 to 1000 nM

O=C1CCC(N2Cc3cc(CN4CCN(c5ncc6ccsc6n5)CC4)ccc3C2=O)C(=O)N1 (stereo not drawn) [GT-04725, 3-(1-oxo-5-((4-(thieno[2,3-d]pyrimidin-2-yl)piperazin-1-yl)methyl)isoindolin-2-yl)piperidine-2,6-dione]
IKZF3 substrate protein remaining % (IKZF3; [3]): B (80%< substrate protein remaining %≤ 100%) | IKZF 1 substrate protein remaining % (IKZF1; [3]): B (80%< substrate protein remaining %≤ 100%) | CK1a substrate protein remaining % (CK1α; [3]): B (80%< substrate protein remaining %≤ 100%) | Weel substrate protein remaining % (WEE1; [3]): B (80%< substrate protein remaining %≤ 100%) | IKZF2 substrate protein remaining % (IKZF2; [3]): B (80%< substrate protein remaining %≤ 100%) | GSPT1 substrate protein remaining % (GSPT1; [3]): A (0% ≤ substrate protein remaining % ≤ 80%) | IC50 [2]: < 500 nM

O=C1CCC(N2Cc3cc(CN4CCCC(C5CCNCC5)C4)ccc3C2=O)C(=O)N1 (stereo not drawn) [GT-04591, 3-(5-([3,4'-bipiperidin]-1-ylmethyl)-1-oxoisoindolin-2-yl)piperidine-2,6-dione]
IKZF3 substrate protein remaining % (IKZF3; [3]): B (80%< substrate protein remaining %≤ 100%) | IKZF 1 substrate protein remaining % (IKZF1; [3]): B (80%< substrate protein remaining %≤ 100%) | CK1a substrate protein remaining % (CK1α; [3]): A (0% ≤ substrate protein remaining % ≤ 80%) | Weel substrate protein remaining % (WEE1; [3]): B (80%< substrate protein remaining %≤ 100%) | IKZF2 substrate protein remaining % (IKZF2; [3]): B (80%< substrate protein remaining %≤ 100%) | GSPT1 substrate protein remaining % (GSPT1; [3]): A (0% ≤ substrate protein remaining % ≤ 80%) | IC50 [2]: 1500 to 1900 nM

O=C1CCC(N2Cc3cc(CN4CCN(c5noc6ccncc56)CC4)ccc3C2=O)C(=O)N1 (stereo not drawn) [GT-04904, 3-(5-((4-(isoxazolo[4,5-c]pyridin-3-yl)piperazin-1-yl)methyl)-1-oxoisoindolin-2-yl)piperidine-2,6-dione]
IKZF3 substrate protein remaining % (IKZF3; [3]): B (80%< substrate protein remaining %≤ 100%) | IKZF 1 substrate protein remaining % (IKZF1; [3]): A (0% ≤ substrate protein remaining % ≤ 80%) | CK1a substrate protein remaining % (CK1α; [3]): B (80%< substrate protein remaining %≤ 100%) | Weel substrate protein remaining % (WEE1; [3]): B (80%< substrate protein remaining %≤ 100%) | IKZF2 substrate protein remaining % (IKZF2; [3]): B (80%< substrate protein remaining %≤ 100%) | GSPT1 substrate protein remaining % (GSPT1; [3]): B (80%< substrate protein remaining %≤ 100%) | IC50 [2]: < 500 nM
